Read-outs that look alike come from different tables or passages of the source.
Tests used:
[1] = UV-visible spectrophotometric titrations (pKa); type: physicochemical; conditions: 25 °C; for pKa: water with 0.2% (v/v) DMSO
Experimental: Spectrophotometrical determination of pKa values was performed as previously reported.[20],[50] An Agilent Cary 8454 diode array spectrophotometer was used to record the UV–visible spectra in the interval 200–800 nm. The path length was between 1 and 5 cm. The spectrophotometric titrations were performed in water with 0.2% (v/v) DMSO on samples containing the compounds at 2–50 μM in the pH range from 2 to 11.5 at 25.0 ± 0.1 °C at an ionic strength of 0.10 M (KCl). Proton dissociation constants and the individual spectra of the species in the different protonation states were calculated with the computer program PSEQUAD.[62]

A431 cells = test: PrestoBlue viability assay, A431 cells
MES-SA cells = test: PrestoBlue viability assay, MES-SA cells
A431-B1 cells = test: PrestoBlue viability assay, A431-B1 (A431-ABCB1) cells
MES-SA/Dx5 cells = test: PrestoBlue viability assay, MES-SA/Dx5 cells (MDR, P-gp positive); conditions: for SR_TQ: selectivity ratio MES-SA vs MES-SA/Dx5, with TQ; for SR: selectivity ratio MES-SA vs MES-SA/Dx5, without TQ
[2] = 0.2% DMSO, I = 0.10 M KCl, read-out: pKa (OH), experimentally determined
[3] = read-out: pKa (NpiperaziniumH+ at methyl / N-ethyl), experimentally determined
[4] = quinolinium nitrogen, I = 0.10 M KCl, read-out: pKa (NquinH+), experimentally determined
[5] = Homo sapiens, A-431, 72 h, read-out: IC50 / µM A431, 72 h incubation
[6] = Homo sapiens, A-431, read-out: pIC50 A431, SARM figure (converted)
[7] = Homo sapiens, MES-SA, 72 h, read-out: IC50 / μM MES-SA, absence of TQ, 72 h incubation
[8] = Homo sapiens, MES-SA, read-out: IC50 / μM MES-SA (values in parentheses), presence of 1 μM P-gp inhibitor tariquidar (TQ)
[9] = Homo sapiens, MES-SA, read-out: pIC50 MES-SA, absence of TQ (converted), SARM figure
[10] = Homo sapiens, MES-SA, read-out: pIC50 value MES-SA+TQ, MES-SA cells, with TQ (converted)
[11] = Homo sapiens, MES-SA, read-out: pIC50 value MES-SA, MES-SA cells, without TQ (converted)
[12] = read-out: IC50 / μM MES-SA, absence of TQ, 72 h incubation
[13] = 72 h, read-out: IC50 / µM A431-B1, 72 h incubation
[14] = read-out: pIC50 A431-B1, SARM figure (converted)
[15] = Homo sapiens, MES-SA/Dx5, 72 h, read-out: IC50 / μM MES-SA/Dx5, absence of TQ, 72 h incubation
[16] = Homo sapiens, MES-SA/Dx5, read-out: IC50 / μM MES-SA/Dx5 (values in parentheses), presence of 1 μM P-gp inhibitor tariquidar (TQ)
[17] = Homo sapiens, MES-SA/Dx5, read-out: pIC50 value MES-SA/Dx5 + TQ, MES-SA/Dx5 cells, with TQ (converted)
[18] = Homo sapiens, MES-SA/Dx5, read-out: pIC50 value MES-SA/Dx5, MES-SA/Dx5 cells, without TQ (converted)
[19] = read-out: IC50 / μM MES-SA/Dx5, absence of TQ, 72 h incubation
[20] = piperidinium / pyrrolidinium / morpholinium N, read-out: pKa (other; N+amH alkylamine nitrogen), experimentally determined
[21] = read-out: pKa (NpiperaziniumH+ closer to quinoline ring), experimentally determined

SMILES	pKa [1, 2]	pKa [1, 4]	IC50 (A431 cells; [5])	IC50 (A431 cells; [6])	IC50 (A431-B1 cells; [13])	IC50 (A431-B1 cells; [14])	pKa [1, 20]	IC50 (MES-SA cells; [7])	IC50 (MES-SA cells; [8])	IC50 (MES-SA cells; [10])	IC50 (MES-SA cells; [11])	IC50 (MES-SA/Dx5 cells; [15])	IC50 (MES-SA/Dx5 cells; [16])	IC50 (MES-SA/Dx5 cells; [17])	IC50 (MES-SA/Dx5 cells; [18])	SR_TQ (MES-SA/Dx5 cells)	SR (MES-SA/Dx5 cells)	also measured
CN1CCN(Cc2cc(Cl)c3cccnc3c2O)CC1 [Compound 9]	9.63 ± 0.03	3.56 ± 0.03	17 ± 1.04 µM	14.5 µM	3.55 ± 0.5 µM	6.31 µM	–	5.86 ± 0.98 µM	5.14 µM	5.13 µM	5.37 µM	1.59 ± 0.27 µM	4.3 µM	4.27 µM	1.86 µM	1.19	2.84	pKa [1, 3]: 5.61 ± 0.03; IC50 (A431 cells; read-out: IC50 / µM A431, 72 h incubation): 15.9 ± 7.44 µM; IC50 (MES-SA cells; [9]): 5.75 µM; IC50 (MES-SA cells; Homo sapiens, MES-SA, read-out: pIC50 MES-SA_TQ, presence of 1 μM TQ (converted), SARM figure): 10 µM; IC50 (MES-SA cells; [12]): 5.39 ± 0.47 µM; IC50 (A431-B1 cells; read-out: IC50 / µM A431-B1, 72 h incubation): 6.67 ± 2.4 µM; IC50 (MES-SA/Dx5 cells; Homo sapiens, MES-SA/Dx5, read-out: pIC50 Dx5, absence of TQ (converted), SARM figure): 1.55 µM; IC50 (MES-SA/Dx5 cells; Homo sapiens, MES-SA/Dx5, read-out: pIC50 Dx5_TQ, presence of 1 μM TQ (converted), SARM figure): 6.76 µM; IC50 (MES-SA/Dx5 cells; [19]): 1.9 ± 0.37 µM
COCc1ccc(O)c2ncccc12 [Compound 14]	9.43 ± 0.03	4.64 ± 0.03	–	–	–	–	–	2.51 ± 0.13 µM	–	–	2.51 µM	1.79 ± 0.09 µM	–	–	1.78 µM	–	1.4	–
CCOCc1cc(CN2CCCC2)c(O)c2ncccc12 [Compound 18]	7.89 ± 0.03	2.49 ± 0.03	35.2 ± 11.5 µM	33.1 µM	5.92 ± 2.14 µM	5.62 µM	11.21 ± 0.03	8.61 ± 1.31 µM	8.73 ± 0.54 µM	8.71 µM	8.51 µM	0.93 ± 0.18 µM	5.25 ± 0.18 µM	5.25 µM	0.912 µM	1.66	9.27	–
CCN1CCN(Cc2ccc(O)c3ncccc23)CC1 [Compound 55]	9.67 ± 0.03	4.94 ± 0.03	–	–	–	–	–	17.7 ± 3.14 µM	–	–	17.4 µM	21.38 ± 0.1 µM	–	–	21.4 µM	–	0.83	pKa [1, 3]: 5.48 ± 0.03; pKa [1, 21]: 2.6 ± 0.03
Oc1ccc(CN2CCN(c3ccccc3)CC2)c2cccnc12 [Compound 57]	8.88 ± 0.03	3.63 ± 0.03	–	–	–	–	–	3.67 ± 0.35 µM	–	–	3.63 µM	4.19 ± 0.15 µM	–	–	4.17 µM	–	0.88	pKa [1, 21]: 6.69 ± 0.03
Oc1c(CN2CCCc3ccccc32)ccc2cccnc12 [Compound 79]	9.98 ± 0.03	4.45 ± 0.03	–	–	–	–	1.7 ± 0.1	10.1 ± 0.38 µM	–	–	10 µM	13.5 ± 0.7 µM	–	–	13.5 µM	–	0.75	pKa (other; N+amH alkylamine nitrogen), experimentally determined ([1]; piperidinium / pyrrolidinium / morpholinium N, water): 1.69

Continued, in another order:

pKa [1, 2]	pKa [1, 4]	IC50 (A431 cells; [5])	IC50 (A431 cells; [6])	IC50 (A431-B1 cells; [13])	IC50 (A431-B1 cells; [14])	pKa [1, 20]	SMILES	IC50 (MES-SA cells; [7])	IC50 (MES-SA cells; [8])	IC50 (MES-SA cells; [10])	IC50 (MES-SA cells; [11])	IC50 (MES-SA/Dx5 cells; [15])	IC50 (MES-SA/Dx5 cells; [16])	IC50 (MES-SA/Dx5 cells; [17])	IC50 (MES-SA/Dx5 cells; [18])	SR_TQ (MES-SA/Dx5 cells)	SR (MES-SA/Dx5 cells)	also measured
5.8 ± 0.03	< 2	6.67 ± 1.69 µM	6.46 µM	1.69 ± 0.27 µM	1.66 µM	> 11	Oc1c(CN2CCCCC2)cc(Cl)c2cccnc12 [Compound 19]	2.49 ± 0.39 µM	3.38 µM	3.39 µM	2.45 µM	0.29 ± 0.05 µM	2.58 µM	2.57 µM	0.282 µM	1.31	8.71	IC50 (MES-SA cells; [9]): 2.24 µM
7.16 ± 0.03	1.8 ± 0.1	6.91 ± 1.37 µM	6.76 µM	2.16 ± 0.35 µM	1.58 µM	> 11	Oc1c(CN2CCCCC2)cc(Br)c2cccnc12 [Compound 20, 5-Bromo-7-(piperidin-1-ylmethyl)quinolin-8-ol]	1.79 ± 0.16 µM	1.71 µM	1.7 µM	1.78 µM	0.17 ± 0.02 µM	1.32 ± 0.08 µM	1.32 µM	0.166 µM	1.29	10.67	IC50 (MES-SA cells; [12]): 1.78 ± 0.17 µM; IC50 (MES-SA/Dx5 cells; read-out: IC50 / μM MES-SA/Dx5 (values in parentheses), presence of 1 μM P-gp inhibitor tariquidar (TQ)): 1.33 µM; IC50 (MES-SA/Dx5 cells; [19]): 0.16 ± 0.02 µM
7.66 ± 0.03	2.43 ± 0.03	7.53 ± 1 µM	7.41 µM	1.91 ± 0.18 µM	1.91 µM	> 11	CC(C)OCc1cc(CN2CCCCC2)c(O)c2ncccc12 [Compound 24]	6.03 ± 0.29 µM	5.76 ± 0.15 µM	5.75 µM	6.03 µM	0.48 ± 0.04 µM	4.37 ± 0.24 µM	4.37 µM	0.479 µM	1.32	12.57	–
8.45 ± 0.03	3.83 ± 0.03	–	–	–	–	10.23 ± 0.03	Oc1ccc(CN2CCCCC2)c2cccnc12 [Compound 47]	7.45 ± 0.06 µM	–	–	7.41 µM	4.36 ± 0.4 µM	–	–	4.37 µM	–	1.71	–
6.46 ± 0.03	1.7 ± 0.1	–	–	–	–	10.75 ± 0.03	Oc1c(C(c2ccccc2)N2CCCCC2)cc(Cl)c2cccnc12 (centres unmarked) [Compound 97]	14.9 ± 0.18 µM	–	–	14.8 µM	14 ± 0.15 µM	–	–	13.8 µM	–	1.06	–
9.42 ± 0.03	1.89 ± 0.03	–	–	–	–	5.53 ± 0.03	Oc1c(C(c2ccccn2)N2CCOCC2)cc(Cl)c2cccnc12 (centres unmarked) [Compound 108]	40 ± 9.54 µM	–	–	38.9 µM	24.7 ± 4.26 µM	–	–	24.5 µM	–	1.62	pKa ([1]; read-out: pKa (NpyridiniumH+), experimentally determined): < 2

Reference: article PMC9189845, “Structure–Activity Relationships of 8-Hydroxyquinoline-Derived Mannich Bases with Tertiary Amines Targeting Multidrug-Resistant Cancer” (Journal of Medicinal Chemistry, 2022)
